Experimental data as given in article PMC9138994 (Biomolecules, 2022).

Tests used:
human 5-HT6 = target: T1, human 5-HT6 (Homo sapiens, UniProt P50406); assay: Radioligand displacement assay at 5-HT6 ([3H]-LSD, HEK293 cells); format: binding; settings: HEK293 cells stably expressing h5-HT6, read-out: Ki ± SD (n), 5-HT6
T1 construct: expressed in transfected cells; host or cells: HEK293
Protocol: (§1) HEK293 cells with a stable expression of human 5-HT1A, 5-HT6, 5-HT7b, and D2L (prepared with the use of Lipofectamine 2000), or CHO-K1 cells with plasmids containing the sequence coding for the human serotonin 5-HT2A receptor (PerkinElmer), were maintained at 37 °C in a humidified atmosphere with 5% CO2 and grown in Dulbecco’s Modified Eagle Medium containing 10% dialyzed fetal bovine serum and 500 µg/mL G418 sulfate. For membrane preparation, cells were subcultured in 150 cm^2 flasks, grown to 90% confluence, washed twice with prewarmed to 37 °C phosphate buffered saline (PBS) and pelleted by centrifugation (200× g) in PBS containing 0.1 mM EDTA and 1 mM dithiothreitol. Prior to membrane preparation, the pellets were stored at −80 °C.
(§2) Cell pellets were thawed and homogenized in 10 volumes of assay buffer using an Ultra Turrax tissue homogenizer, and were then centrifuged twice at 35,000× g for 15 min at 4 °C, with incubations for 15 min at 37 °C in between. […] The process of equilibration was terminated by rapid filtration through Unifilter plates with a 96-well cell harvester and the radioactivity retained on the filters was quantified on a Microbeta plate reader (PerkinElmer, Waltham, MA, USA). […] The inhibition constants (Ki) were calculated from the Cheng-Prusoff equation [38]. Results are expressed as means of two separate experiments.

human 5-HT1A = target: T2, human 5-HT1A (Homo sapiens, UniProt P08908); assay: Radioligand displacement assay at 5-HT1A ([3H]-8-OH-DPAT, HEK293 cells); format: binding; settings: HEK293 cells stably expressing h5-HT1A, read-out: Ki (n), 5-HT1A
T2 construct: expressed in transfected cells; host or cells: HEK293
T2 sequence (P08908 1-422): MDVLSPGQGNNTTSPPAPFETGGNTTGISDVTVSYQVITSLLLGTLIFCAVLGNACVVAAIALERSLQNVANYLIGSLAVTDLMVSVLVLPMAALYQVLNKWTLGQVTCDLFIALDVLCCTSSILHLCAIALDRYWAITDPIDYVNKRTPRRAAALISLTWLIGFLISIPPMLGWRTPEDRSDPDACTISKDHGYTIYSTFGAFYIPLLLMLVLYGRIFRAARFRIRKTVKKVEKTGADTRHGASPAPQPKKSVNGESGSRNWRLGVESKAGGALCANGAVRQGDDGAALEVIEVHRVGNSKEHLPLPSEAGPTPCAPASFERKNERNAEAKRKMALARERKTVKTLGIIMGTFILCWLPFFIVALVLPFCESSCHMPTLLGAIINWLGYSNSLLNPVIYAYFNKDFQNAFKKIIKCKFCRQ
Protocol: as §1, §2

human D2L = target: T3, human D2L (Homo sapiens, UniProt P14416); assay: Radioligand displacement assay at dopamine D2R ([3H]-raclopride, HEK293 cells); format: binding; settings: HEK293 cells stably expressing human D2R, read-out: Ki ± SD (n), D2R
T3 construct: expressed in transfected cells; host or cells: HEK293
T3 sequence (P14416 whole entry): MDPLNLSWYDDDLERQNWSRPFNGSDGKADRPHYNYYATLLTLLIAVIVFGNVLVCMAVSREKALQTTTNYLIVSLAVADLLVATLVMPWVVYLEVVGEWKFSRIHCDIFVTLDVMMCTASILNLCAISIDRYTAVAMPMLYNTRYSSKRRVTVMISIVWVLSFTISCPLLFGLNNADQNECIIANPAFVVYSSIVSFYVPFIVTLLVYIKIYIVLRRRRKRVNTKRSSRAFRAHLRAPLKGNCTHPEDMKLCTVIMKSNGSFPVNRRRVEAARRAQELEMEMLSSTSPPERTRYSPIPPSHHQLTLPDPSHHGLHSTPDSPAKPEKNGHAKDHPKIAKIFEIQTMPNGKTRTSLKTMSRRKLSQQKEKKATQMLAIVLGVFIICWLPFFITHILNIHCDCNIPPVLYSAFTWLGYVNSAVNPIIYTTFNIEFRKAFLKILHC

C57BL/6 mice = assay: Forced swim test (FST); format: in vivo; settings: for immobility time in FST: acute i.p. pretreatment, ST-2300 or PIM 5, 10, 15 mg/kg, vs saline controls, adult male C57BL/6 mice, 6 min
Protocol: Inbred adult male C57BL/6 mice (aged 10–12 weeks and weighing 20–25 g) were obtained from the animal facility in the College of Medicine and Health Sciences, United Arab Emirates University. The animals were maintained in a separate air-conditioned room with controlled temperature and humidity (24 ± 2 °C and 55 ± 15%, respectively), with a 12 h light/dark cycle, and ad libitum to food and water. All the experiments were performed between 9.00 am and 3.00 pm. The procedures were approved by the Institutional Animal Ethics Committee of College of Medicine and Health Sciences/United Arab Emirates University (Approval No. ERA-2019-6010). To reduce the suffering of the animals, a minimum number of animals were used in this study, whereas the objectives were not compromised.
These experiments provide the first behavioral assessment of the ST-2300 in anxiety-like and depression-like behaviors in mice. All doses are expressed in terms of the free base of all test compounds. The drugs used in the current study were dissolved in saline and injected i.p. at a volume of 1 mL/kg. All experimental procedures were conducted in a blinded fashion in which the experimenter was uninformed about the specific treatment groups to which an animal group belonged. Saline, ST-2300 (5, 10, and 15 mg/kg), PIM (5, 10, and 15 mg/kg), FLX (10 mg/kg), RAM (10 mg/kg), and DZP (1 mg/kg) were injected i.p. 30–45 min before the beginning of the behavioral experiments.
The FST test was performed according to previously described protocols. Mice were individually placed into glass cylinders containing 15 cm of water at ∼25 °C. The mice were left in the cylinders for 6 min and immobility was observed and analyzed. The mice were then removed from the container and left to dry in a heated enclosure before being returned to their home cages. The mice were considered to be immobile when they ceased struggling and remained floating motionless in the water (without any vertical or horizontal movements), making only the movements necessary to keep their heads above the water level as described previously.

T1 sequence (P50406 whole entry): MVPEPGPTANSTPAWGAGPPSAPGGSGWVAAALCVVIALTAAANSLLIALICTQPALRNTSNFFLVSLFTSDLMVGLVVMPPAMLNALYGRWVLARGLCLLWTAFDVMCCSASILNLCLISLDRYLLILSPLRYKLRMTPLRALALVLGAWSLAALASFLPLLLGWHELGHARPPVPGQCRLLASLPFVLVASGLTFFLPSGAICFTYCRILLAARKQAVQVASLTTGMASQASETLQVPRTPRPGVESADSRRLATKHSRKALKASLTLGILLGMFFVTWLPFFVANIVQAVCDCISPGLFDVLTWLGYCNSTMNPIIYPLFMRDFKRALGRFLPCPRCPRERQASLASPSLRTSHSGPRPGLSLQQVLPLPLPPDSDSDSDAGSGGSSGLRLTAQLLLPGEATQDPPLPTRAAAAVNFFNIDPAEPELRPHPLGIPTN

Structure (SMILES) | Ki (human 5-HT6) | Ki (human 5-HT1A) | Ki (human D2L) | immobility time in FST, co-administration of RAM (C57BL/6 mice; ST-2300 10 mg/kg i.p. co-administered with H3R agonist RAM 10 mg/kg i.p., vs ST-2300 alone) | immobility time in FST (C57BL/6 mice)
CN1CCC(N(Cc2ccc(F)cc2)C(=O)NCc2ccc(OCCCN3CCCCC3)cc2)CC1 [ST-2300, 1-(4-Fluorobenzyl)-1-(1-methylpiperidin-4-yl)-3-{4-[3-(piperidin-1-yl)propoxy]benzyl}urea] | > 10 µM | > 10 µM | > 10 µM | significant increase of immobility time | significant and dose-dependent decrease of immobility time
CC(C)COc1ccc(CNC(=O)N(Cc2ccc(F)cc2)C2CCN(C)CC2)cc1 [Pimavanserin, reference compound] | 0.059 ± 0.011 µM | > 10 µM |  |  | significant and dose-dependent decrease of immobility time
